# Entries after “also recorded” stand apart in the source; their conditions may differ.
# Key:
# [1] = cited from earlier work
# [2] = tested on: ischemic skin flap; assay: Skin flap necrosis, rat ischemic dorsal pedicle skin flap (McFarlane) model; format: in vivo; details: for mean percentage of skin flap necrosis: postoperative day 3; for mean percentage of skin flap necrosis / flap necrosis: intraperitoneal + topical; for mean percentage of skin flap necrosis / postsurgical flap necrosis percentage: control 41.3±3.8 percent; for flap necrosis: postoperative day 7; for flap necrosis / percentage of flap necrosis: control 50.9±3.9 percent; for postsurgical flap necrosis percentage: postsurgical day 3; for percentage of flap necrosis: postsurgical day 7
# Description: (§1) After institutional animal care and use committee approval, hairless male rats (8 weeks old; 250 g) were obtained from Charles River Laboratories (Wilmington, Mass.). Six experimental groups of rats (n=24) and three control groups (n=12) underwent skin flap surgery by surgeons blinded to the experimental treatment arm. First, to assess both systemic and topical administration together, four experimental groups (n=16) were administered dimethyloxalylglycine (Cayman Chemical, Ann Arbor, Mich.) both intraperitoneally and topically for a total dose of 6 mg/kg/day (n=4), 12 mg/kg/day (n=4), 24 mg/kg/day (n=4), or 48 mg/kg/day (n=4). Next, to assess topical versus intraperitoneal administration, two experimental groups were administered dimethyloxalylglycine at 48 mg/kg/day either topically (n=4) or intraperitoneally (n=4). Intraperitoneal administration consisted of dimethyloxalylglycine suspension in phosphate-buffered saline (pH 7.4) to a maximum dosage of 10 ml/kg. Topical delivery consisted of administration of dimethyloxalylglycine using dimethylsulfoxide as a delivery vehicle at a maximum dosage of 9 ml/kg undiluted solution. Topical application was performed in the outline of the proposed skin flap. To replicate a short therapeutic course before and after flap surgery, the study was designed to include a 14-day treatment period, with dimethyloxalylglycine administered 7 days before and 7 days after flap surgery (FIG. 1). Because prolyl hydroxylase inhibitors target the HIF pathway […], this design was chosen to allow time for downstream neovascularization.
# (§2) Throughout the same 14-day treatment course, control groups were administered an equal volume of intraperitoneal phosphate-buffered saline (pH 7.4) and topical dimethylsulfoxide. A dorsal pedicle skin flap based on the McFarlane model measuring 3×6 cm was elevated in the areolar tissue plane deep to the panniculus carnosus layer on each rat on treatment day 7. Consistency in flap design was ensured using a model outline for size and shape and positioning according to bony landmarks. After flap elevation, the flap was sutured in place with 4-0 polypropylene. Surgeons were blinded intraoperatively to treatment arm with a random numbers scheme. Seven days after surgery, the animals were euthanized and histologic analysis performed in postmortem tissue specimens.
# (§3) Photographic measurements of necrosis were taken on postoperative days 1, 3, and 7. Flap necrosis was determined grossly by the presence of cyanosis and congestion on postoperative day 1 (FIG. 2) and the presence of scab formation and loss of skin elasticity on subsequent postsurgical days. At 7 days, tissue perfusion was assessed by means of intraperitoneal injection of 1 ml of sodium fluorescein 10% at 60 mg/kg and fluorescent imaging with an in vivo imaging system (IVIS Kinetic; PerkinElmer, Waltham, Mass.) using LIVING IMAGE® software with a 465-nm excitation and green fluorescent protein emission filter. Necrotic area was calculated using ImageJ Software (National Institutes of Health, Bethesda, Md.). Digital photographs and IVIS images were evaluated and analyzed by an investigator blinded to the assigned treatment group.
# [3] = tested on: ischemic skin flap; assay: Skin flap tissue perfusion, sodium fluorescein injection and IVIS imaging; format: in vivo, rat; details: postoperative day 7; for percentage of unperfused tissue: intraperitoneal + topical, control 39.9±3.8 percent; for percentage of unperfused tissue / percentage of overall flap perfusion: p<0.001; for percentage of overall flap perfusion: control 31.4±2.3 percent
# Description: as §1, §2, §3
# [4] = tested on: HIF-1α; assay: HIF-1α immunohistochemistry of skin flap epidermis; format: in vivo, rat; details: 4 cm from the proximal flap, postoperative day 7, control 3.5±0.6, p<0.001
# Description: For analysis of HIF-1α, sections were taken 4 cm from the proximal flap and incubated with anti-rabbit HIF-1α antibody (Novus Biologicals, Littleton, Colo.) at a dilution of 1:1600. A Discovery Ultra immunohistochemical system (Ventana Medical Systems, Oro Valley, Ariz.) was used for staining with OmniMap anti-Rb horseradish peroxidase and red chromogen was used for detection. HIF-1α-positive nuclei in the epidermis were counted by light microscopy (20×) in five fields. All immunohistochemical measurements were performed by a blinded investigator.
# [5] = tested on: CD31+ vessels; assay: Neovascularization: CD31 immunohistochemistry and hematoxylin and eosin histology of skin flap; format: in vivo, rat
# Description: (§4) Tissues from the proximal and distal parts of the flaps were collected on postoperative day 7 and were fixed in 10% paraformaldehyde and embedded in paraffin, with representative sections depicted in FIG. 1. For histologic evaluation and CD31 immunohistochemical staining, sections taken 6 cm from the proximal flap were deparaffinized in xylene and rehydrated in a series of ethanol washes. For detection of CD31+ cells, sections were incubated with anti-mouse CD31 antibody (BD Pharmingen, San Jose, Calif.) at a dilution of 1:200 at 4° C. overnight. For analysis of angiogenesis, the CD31+ vessels in five fields were counted by light microscopy (20×) for each group. A TdT In Situ Cell Death Detection Kit (R&D Systems, Minneapolis, Minn.) was used to compare apoptotic protein expression in sections taken 4 cm from the proximal flap. The ratio of terminal deoxynucleotidyl transferase-mediated dUDP end-labeling-positive cells was calculated according to the manufacturer's protocol. Terminal deoxynucleotidyl transferase-mediated dUDP end-labeling-positive cells were also counted by light microscopy (20×) in 10 fields.
# [6] = tested on: VEGF; assay: Tissue VEGF concentration by enzyme-linked immunosorbent assay; format: in vivo, rat; details: skin flap 6 cm from the proximal flap, postoperative day 7; control 22.0±1.7 pg/ml; p=0.007
# Description: Tissue samples were harvested on postoperative day 7 and dissected on ice, submerged in liquid nitrogen, then stored at −80° C. Tissue samples from tissue sections taken at the same distance 6 cm from the proximal flap were then homogenized in lysis buffer containing 100 mM Tris hydrochloride (pH 7.4), 150 mmol sodium chloride, 1% Triton X-100, 0.5% sodium deoxycholate, and 1 μg/ml protease inhibitor cocktail (Sigma Aldrich, St. Louis, Mo.). The samples were centrifuged to pellet the debris, and the supernatants were analyzed following the manufacturer's protocol for a rat tissue extract VEGF enzyme-linked immunosorbent assay kit (Sigma-Aldrich).
# [7] = tested on: apoptotic cells; assay: Apoptosis by terminal deoxynucleotidyl transferase-mediated dUDP end-labeling staining of skin flap; format: in vivo, rat; details: 20× magnification, 4 cm from the proximal flap; control 15.1±6.2; p=0.045
# Description: as §4
# [8] = Complete blood counts after 14 total days of treatment; format: in vivo, rat
# Description: (§5) The animals were treated according to institutional animal care and use committee guidelines. Animals were double-housed for the preoperative period, then single-housed in the immediate postoperative period to protect flap integrity. Isoflurane anesthesia was used for all operations and daily intraperitoneal injections. Elizabethan collars were placed on rats to prevent ingestion of the topical solution after application. No dressing was used over the topical application site due to absorption. Animals were observed daily for side effects, including wound infections or dehiscence. Weights were taken on the day of surgery and on postoperative day 7. Blood samples were obtained on postoperative day 7 immediately before the animals were euthanized by means of cardiac puncture to determine hemoglobin, hematocrit, white blood cell count, and platelet count. Animals were euthanized by means of intracardiac potassium chloride on postoperative day 7, and gross necropsies were performed by a veterinarian to assess macroscopic organ changes after 14 total days of treatment.
# [9] = Side effect monitoring, weights and gross necropsy; format: in vivo, rat
# Description: as §5
smiles,measurement,setting,value
O=c1c(-n2ccnn2)c[nH]n1-c1cc(N2CCOCC2)ncn1 [Molidastat],most common adverse effect in clinical trials,[1],hypertension resulting from polycythemia
O=C(O)CNC(=O)c1ncc(-c2cccc(Cl)c2)cc1O [Vadadustat],most common adverse effect in clinical trials,[1],hypertension resulting from polycythemia
COC(=O)CNC(=O)C(=O)OC [dimethyloxalylglycine],cyanosis of flaps,"[2]; postoperative day 1, treated versus control flaps (FIG. 2: 24 mg/kg/day intraperitoneal and topical)",Decreased cyanosis
same,mean percentage of skin flap necrosis,"[2]; total 6 mg/kg/day, p=0.13",30.2±3.9%
same,mean percentage of skin flap necrosis,"[2]; total 12 mg/kg/day, p=0.001",12.3±4.5%
same,mean percentage of skin flap necrosis,"[2]; total 24 mg/kg/day, p=0.008",20.3±1.8%
same,mean percentage of skin flap necrosis,"[2]; total 48 mg/kg/day, p<0.001",7.7±3.1%
same,flap necrosis,"[2]; total 6 mg/kg/day, p=0.004",26.7±1.3%
same,flap necrosis,"[2]; total 12 mg/kg/day, p=0.002",20.6±7.0%
same,flap necrosis,"[2]; total 24 mg/kg/day, p=0.003",25.0±2.5%
same,flap necrosis,"[2]; total 48 mg/kg/day, p<0.001",11.6±4.4%
same,postsurgical flap necrosis percentage,"[2]; intraperitoneal alone 48 mg/kg/day, p=0.002",14.7±2.6%
same,postsurgical flap necrosis percentage,"[2]; topical alone 48 mg/kg/day, p=0.005",18.9±2.8%
same,percentage of flap necrosis,"[2]; intraperitoneal alone 48 mg/kg/day, p<0.001",16.3±5.2%
same,percentage of flap necrosis,"[2]; topical alone 48 mg/kg/day, p=0.003",25.7±2.3%
same,increase in flap viability,[2]; topical application and intraperitoneal administration,nearly threefold increase
same,dose dependence of tissue perfusion,[3]; 6 to 48 mg/kg/day,higher dimethyloxalylglycine doses leading to increased tissue perfusion
same,percentage of unperfused tissue,[3]; total 6 mg/kg/day,11.4±1.7%
same,percentage of unperfused tissue,[3]; total 12 mg/kg/day,9.4±4.2%
same,percentage of unperfused tissue,[3]; total 24 mg/kg/day,4.7±2.6%
same,percentage of unperfused tissue,[3]; total 48 mg/kg/day,1.4±0.9%
same,percentage of overall flap perfusion,[3]; intraperitoneal alone 48 mg/kg/day,7.2±3.8%
same,percentage of overall flap perfusion,[3]; topical alone 48 mg/kg/day,6.9±1.3%
same,number of HIF-1α-stained nuclei per high-power field,[4],21.0±2.7
same,number of CD31-labeled vessels,"[5]; per high-power field at 20×, 6 cm from the proximal flap, after 14 total days of treatment, control 8.8±1.2, p=0.004",18.8±2.2
same,neovascularization on hematoxylin and eosin-stained tissue,"[5]; skin flap after 14 total days of treatment, versus controls",greater neovascularization
same,tissue VEGF concentration,[6],37.1 ± 3.4 pg/mL
same,number of apoptotic cells per high-power field,[7],1.7±0.6
same,mean hemoglobin,"[8]; control 15.1±0.5 g/dl, p=0.3",14.2 ± 1.0 g/dL
same,mean white blood cell count,"[8]; control 18.2±5.6×10^3/p1, p=0.08",10.4±1.6 ×10^3/p1
same,hematocrit,"[8]; control 43.3±1.1 percent, p=0.2",40.8±2.6%
same,platelet count,"[8]; control 1446±218×10^9/liter, p=0.8",1510±247 ×10^9/liter
same,gross necropsy findings,[9]; after 14 total days of treatment,"no evidence of cardiovascular changes, splenomegaly, or polycythemia; also recorded: no macroscopic organ changes were observed"
same,weights versus control animals,"[9]; experimental day 1 or day 14, all doses",no differences
same,"wound infections, dehiscence, behavioral changes in feeding or activity","[9]; rat, in vivo","No wound infections, dehiscence, or behavioral changes in feeding or activity were observed"

# Reference: US20210244700A1, “COMPOSITIONS AND METHODS FOR PREVENTING AND/OR REDUCING ISCHEMIA AFTER SURGICAL INCISIONS” (Duke University, priority 2018, published 2021)
